Results published in patent publication US20120309734A1, “COMBRETASTATIN DERIVATIVES AND USES THEREFOR” (priority 2009, published 2012).

Columns and labels:
[1] = test system: MCF-7 breast cancer cell line; experiment: Antiproliferation study, MTT cell viability assay; assay type: cell-based; details: Homo sapiens, MCF7, 72 h, antiproliferative activity, MTT, 72 h; read-out: IC50 (μM) MCF-7 cell line
Outline: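 Cells seeded at 2.5×10^4 cells/ml and grown 24 h at 37 °C before compound treatment; vehicle 1% v/v ethanol. MTT at 1 mg/mL final for 2 h at 37 °C, then DMSO solubilisation and absorbance read. Viability expressed as % of untreated control, in triplicate, with compounds tested as free bases.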

CCRF-CEM = experiment: NCI60 cell line screen; details: Homo sapiens
HL-60(TB) = experiment: NCI60 cell line screen; details: Homo sapiens
RPMI-8226 = experiment: NCI60 cell line screen; details: Homo sapiens
A549/ATCC = experiment: NCI60 cell line screen; details: Homo sapiens
EKVX = experiment: NCI60 cell line screen; details: Homo sapiens
HOP-92 = experiment: NCI60 cell line screen; details: Homo sapiens
NCI-H23 = experiment: NCI60 cell line screen; details: Homo sapiens
NCI-H460 = experiment: NCI60 cell line screen; details: Homo sapiens
COLO 205 = experiment: NCI60 cell line screen; details: Homo sapiens
HCT-2998 = experiment: NCI60 cell line screen
HCT-116 = experiment: NCI60 cell line screen; details: Homo sapiens
HCT-15 = experiment: NCI60 cell line screen; details: Homo sapiens
SF-268 = experiment: NCI60 cell line screen; details: Homo sapiens
SF-295 = experiment: NCI60 cell line screen; details: Homo sapiens
SF-539 = experiment: NCI60 cell line screen; details: Homo sapiens
SNB-19 = experiment: NCI60 cell line screen; details: Homo sapiens
U251 = experiment: NCI60 cell line screen; details: Homo sapiens, U-251
M14 = experiment: NCI60 cell line screen; details: Homo sapiens
UACC-62 = experiment: NCI60 cell line screen; details: Homo sapiens
IGROV1 = experiment: NCI60 cell line screen; details: Homo sapiens, IGROV-1
OVCAR-8 = experiment: NCI60 cell line screen; details: Homo sapiens
SK-OV-3 = experiment: NCI60 cell line screen; details: Homo sapiens
786-0 = experiment: NCI60 cell line screen; details: Homo sapiens
A498 = experiment: NCI60 cell line screen; details: Homo sapiens
ACHN = experiment: NCI60 cell line screen; details: Homo sapiens
CAKI-1 = experiment: NCI60 cell line screen; details: Homo sapiens
RXF 393 = experiment: NCI60 cell line screen; details: Homo sapiens
SN12C = experiment: NCI60 cell line screen; details: Homo sapiens
TK-10 = experiment: NCI60 cell line screen; details: Homo sapiens
UO-31 = experiment: NCI60 cell line screen; details: Homo sapiens
DU-145 = experiment: NCI60 cell line screen; details: Homo sapiens
NCI/ADR-RES = experiment: NCI60 cell line screen; details: Homo sapiens
MDA-MB-231/ATCC = experiment: NCI60 cell line screen; details: Homo sapiens
MDA-MB-435 = experiment: NCI60 cell line screen; details: Homo sapiens
BT-549 = experiment: NCI60 cell line screen; details: Homo sapiens

SMILES | IC50 [1] | melting point | GI50 (CCRF-CEM) | GI50 (HL-60(TB)) | GI50 (RPMI-8226) | GI50 (A549/ATCC) | GI50 (EKVX) | GI50 (HOP-92) | GI50 (NCI-H23) | GI50 (NCI-H460) | GI50 (COLO 205) | GI50 (HCT-2998) | GI50 (HCT-116) | GI50 (HCT-15) | GI50 (SF-268) | GI50 (SF-295) | GI50 (SF-539) | GI50 (SNB-19) | GI50 (U251) | GI50 (M14) | other results
COc1ccc(C2C(c3ccccc3)C(=O)N2c2cc(OC)c(OC)c(OC)c2)cc1O (stereo not drawn) [Compound 4, 4-(3-Hydroxy-4-methoxyphenyl)-3-phenyl-1-(3,4,5-trimethoxyphenyl)-azetidin-2-one] | 0.0096 µM | 110 °C | < 10 nM | < 10 nM | < 10 nM | < 10 nM | < 10 nM | 5150 nM | < 10 nM | < 10 nM | 19 nM | 35 nM | < 10 nM | < 10 nM | < 10 nM | < 10 nM | < 10 nM | 25 nM | < 10 nM | < 10 nM | GI50 (UACC-62): < 10 nM; GI50 (IGROV1): < 10 nM; GI50 (OVCAR-8): 10 nM; GI50 (SK-OV-3): 37 nM; GI50 (786-0): 34 nM; GI50 (A498): < 10 nM; GI50 (ACHN): < 10 nM; GI50 (CAKI-1): < 10 nM; GI50 (RXF 393): < 10 nM; GI50 (SN12C): < 10 nM; GI50 (TK-10): < 10 nM; GI50 (UO-31): 32 nM; GI50 (DU-145): < 10 nM; GI50 (NCI/ADR-RES): < 10 nM; GI50 (MDA-MB-231/ATCC): < 10 nM; GI50 (MDA-MB-435): < 10 nM; GI50 (BT-549): < 10 nM
COc1ccc(C2C(c3ccccc3)C(=O)N2c2cc(OC)c(OC)c(OC)c2)cc1 (stereo not drawn) [Compound 8, 4-(4-Methoxy-phenyl)-3-phenyl-1-(3,4,5-trimethoxy-phenyl)-azetidin-2-one] | 0.034 µM | 108 °C | 37.2 nM | 16.2 nM | 29.3 nM | 238 nM | 352 nM | 22700 nM | 427 nM | 198 nM | 166 nM | 349 nM | 39.8 nM | 170 nM | 354 nM | 35 nM | 33 nM | 280 nM | 95 nM | 132 nM | GI50 (UACC-62): 40.5 nM; GI50 (IGROV1): 285 nM; GI50 (OVCAR-8): 125 nM; GI50 (SK-OV-3): 412 nM; GI50 (786-0): 432 nM; GI50 (A498): 37.5 nM; GI50 (ACHN): 138 nM; GI50 (CAKI-1): 84.8 nM; GI50 (RXF 393): 36.5 nM; GI50 (SN12C): 312 nM; GI50 (TK-10): 6780 nM; GI50 (UO-31): 396 nM; GI50 (DU-145): 56.9 nM; GI50 (NCI/ADR-RES): 42.5 nM; GI50 (MDA-MB-231/ATCC): 200 nM; GI50 (MDA-MB-435): 23.9 nM; GI50 (BT-549): 117 nM
COc1ccc(C2C(c3cccs3)C(=O)N2c2cc(OC)c(OC)c(OC)c2)cc1 (stereo not drawn) [Compound 12, 4-(4-Methoxyphenyl)-3-thiophen-2-yl-1-(3,4,5-trimethoxyphenyl)-azetidin-2-one] | 0.064 µM | 115 °C | < 10 nM | < 10 nM | < 10 nM | 23 nM | 34 nM | 51 nM | 36 nM | 30 nM | 15 nM | 30 nM | < 10 nM | 26 nM | 28 nM | < 10 nM | < 10 nM | 43 nM | 37 nM | < 10 nM | GI50 (UACC-62): < 10 nM; GI50 (IGROV1): 20 nM; GI50 (OVCAR-8): < 10 nM; GI50 (SK-OV-3): 38 nM; GI50 (786-0): 31 nM; GI50 (A498): < 10 nM; GI50 (ACHN): < 10 nM; GI50 (CAKI-1): 16 nM; GI50 (RXF 393): < 10 nM; GI50 (SN12C): < 10 nM; GI50 (TK-10): < 10 nM; GI50 (UO-31): 38 nM; GI50 (DU-145): < 10 nM; GI50 (NCI/ADR-RES): < 10 nM; GI50 (MDA-MB-231/ATCC): 10 nM; GI50 (MDA-MB-435): < 10 nM; GI50 (BT-549): < 10 nM
